Measurements taken from patent publication US7927634B2, “Compositions and methods for treating angiogenesis-related diseases, wounds and cosmetic use of components of Angelica sinensis, and methods of preparation thereof” (Sunny Biodiscovery, Inc., priority 2004, dated 2011).

Experiments:
[1] = test system: full thickness excisional wounds in genetically diabetic mice; assay: Wound closure in genetically diabetic mice; format: in vivo, mouse; conditions: for Becaplermin (% closure): median, becaplermin 5 ug/wound in CMC gel, n = 6; for Stimulation by becaplermin relative to Control (control = 1): ratio of median closure, becaplermin 5 ug/wound
From the text: We have chosen to use the genetically diabetic mice (13 week old female BKS Cg-m +/+ Lepr(db), stock # 642, Jackson Labs) because it is an optimal model reflecting the impaired wound healing in a segment of the population particularly vulnerable to chronic wounds—the diabetic patients. This genetically diabetic mouse model is well established as documented by over 50 publications (for example see Tsuboi et al., 1992). Many companies have also used it as a standard pre-clinical model, including Johnson & Johnson, which included it in the pre-clinical data package submitted to FDA as part of their IND application for becaplermin. […]
Twelve mice were divided in 2 groups and 8 mm (diameter) full thickness excisional wounds were performed under anesthesia on each side of the animal with a punch biopsy tool and covered by sterile gauze (occlusive dressings were not used as they considerably delay wound healing, according to the experience of the Principal Inventor and to the published reports (Lasa et al., 1993). The number of animals per group was based on the previous publications with this model; Jacobi et al., 2002). In Group 1 (the experimental treatment group), one wound on each animal was treated by 50 ul of “high” concentration of SBD.4 (10 mg per wound) and the other one by 50 ul of “low” concentration of SBD.4 (2 mg per wound). In Group 2 (negative control), both wounds were treated by PBS (phosphate buffered saline). Treatments were applied on the first day and every second day thereafter. Wound surface were measured every second day. Wound closure was determined by the following formula: percent closure={(area on day 0−open area)/area on day 0}×100. Wounds were considered closed if moist granulation tissue was no longer apparent, and the wound appeared covered with new epithelium.
Twelve mice were divided in two groups and two wounds per mouse were effectuated as in Example 5. In order to exclude the possibility of mouse-to-mouse variability in wound healing, in this experiment every mouse was treated by the test sample on one wound and by PBS (negative control) on another wound. Thus, one group of 6 mice was treated with 50 ul of SBD.4 (2 mg/wound) on one wound, and by 50 ul of PBS on the other wound, while the second group of 6 mice was treated with becaplermin (positive control; 5 ug in 50 ul CMC—carboxymethylcellulose—gel) on one and PBS on another wound. The concentration of becaplermin was based on the dose used by Johnson & Johnson in their pre-clinical studies (2) and on published studies with PDGF-B, in the db/db model (Greenhalgh et al., 1990).
Treatments were applied on the first day and every second day thereafter. Wound surface were measured every second day. Wound closure for each wound was determined by the formula: percent closure={(area on day 0−open area)/area on day 0}×100. Wounds were considered closed if moist granulation tissue was no longer apparent, and the wound appeared covered with new epithelium. The dynamics of wound closure for the 2 groups is plotted on FIG. 6 (means) and Table II (medians).

[2] = test system: full thickness wounds in human skin graft on SCID mice; assay: Wound closure in human skin/SCID mouse chimera model; format: in vivo, human skin grafted on SCID mice; conditions: closed/total animals, ointment every two days, SBD.4 (HPLC-purified) in 2% CMC, becaplermin as Regranex
From the text: Human skin graft in severe combined immunodeficient (SCID) mice is a powerful model for evaluating the effect of wound-healing drug-candidates on full-thickness wounds (Juhasz et al., 1993). The wound model in human skin/SCID chimera features normal migration of neutrophils and macrophages to the wound bed, as well as normal expression of growth factors associated with wound-healing, and therefore provides a good approximation of human dermal wound-healing process (Matsumoto et al., 1997). The disadvantage of this model is that it is delicate to handle and time-consuming. The donor skin must be immediately placed on ice and taken to the lab, where a 10-hour grafting procedure follows. We used surgical waste skin obtained under informed consent from a patient undergoing abdominoplasty.
Skin was defatted (if it is not well defatted, the remaining adipose tissue easily undergoes necrosis, which interferes with graft taking. But on the other side, removing the underlying fat tissue too slowly or too zealously can also damage the skin and compromise the graft), and grafted (2.5×2.5 cm) on 15 SCID mice (Charles River Labs), using 10-12 stitches per graft. Here, the challenge is to suture the thick human skin with the much thinner rodent tissue.
After 6 weeks, when the graft anastomosed with the murine skin 8 mm (diameter) full thickness wounds were excised in the human skin. Mice received treatment (ointment every two days) of either becaplermin (Regranex, positive control), 2% carboxymethylcellulose (CMC, negative control) or SBD.4 in 2% CMC on the day of wounding and every second day thereafter. Initial wound closure (defined by the coverage of the base of the wound with bridging granular tissue and new epithelium) was assessed every 3 days.

bovine endothelial cells = assay: Tridimensional tube formation assay, in vitro; format: cell-based; conditions: bFGF positive control, 15 ng/ml or 10 ng/ml; 2-5 weeks; FIG. 3C
Procedure: FIG. 3. Tridimensional tube formation assay, in vitro. A: Capillary endothelial cells form a monolayer in the absence of a remodeling stimulus. B: SBD.4 (5 μg/ml, purified by HPLC) induces remodeling of the monolayer that culminates in a tridimensional network of capillary structures. […]
In this model, capillary-like structures are induced by plating bovine endothelial cells (about 8000 cells per well) in a 96 well tissue culture-treated plate (Costar) in DMEM supplemented with 5% calf serum (Hyclone, Logan, Utah), with or without an endothelial cell stimulatory growth factor. […] Cells grown without such factor form a monolayer (FIG. 3A).

Substance	wound closure versus PBS ([1]; Example 6, becaplermin 5 ug in 50 ul CMC gel per wound, FIG. 6 means, one-way ANOVA)	Becaplermin (% closure) ([1]; Example 6, day 1)	Becaplermin (% closure) ([1]; Example 6, day 3)	Becaplermin (% closure) ([1]; Example 6, day 5)	Becaplermin (% closure) ([1]; Example 6, day 7)	Becaplermin (% closure) ([1]; Example 6, day 9)	Becaplermin (% closure) ([1]; Example 6, day 11)	Stimulation by becaplermin relative to Control (control = 1) ([1]; day 3)	Stimulation by becaplermin relative to Control (control = 1) ([1]; day 5)	Stimulation by becaplermin relative to Control (control = 1) ([1]; day 7)	Stimulation by becaplermin relative to Control (control = 1) ([1]; day 9)	Stimulation by becaplermin relative to Control (control = 1) ([1]; day 11)	# animals showing initial wound closure ([2]; Day 3)	# animals showing initial wound closure ([2]; Day 6)	# animals showing initial wound closure ([2]; Day 9)	# animals showing initial wound closure ([2]; Day 12)	# animals showing initial wound closure ([2]; Day 16)	induction of capillary-like structures (remodeling response) (bovine endothelial cells)
Becaplermin: becaplermin (Regranex, Johnson & Johnson), positive control for wound healing	not meaningfully different from the control	0.0%	1.7%	11.9%	41.2%	65.8%	86.7%	1.1	0.4	1.1	1.3	1.3	0/5	1/5	2/4	4/4	4/4	
bFGF: basic fibroblast growth factor, potent angiogenesis stimulator used as positive control																		form capillary-like structures
